Our source for the Km values is paper PMC3750315, “The production and characterization of a new active lipase from Acremonium alcalophilum using a plant bioreactor” (Biotechnology for Biofuels, 2013).

Molecules are shown by their SMILES.

As a reminder, the Km is the substrate concentration at which the rate is half of its maximum.

For this test, the target named is T1, LipA (Sodiomyces alcalophilus, UniProt P0CT91).
T1 construct: Transient in Nicotiana benthamiana; vector adds Pr1b signal peptide, Xpress tag, C-myc tag, KDEL (tags kept); N-glycosylated, about 56 kDa on SDS-PAGE
T1 sequence (P0CT91 23-416): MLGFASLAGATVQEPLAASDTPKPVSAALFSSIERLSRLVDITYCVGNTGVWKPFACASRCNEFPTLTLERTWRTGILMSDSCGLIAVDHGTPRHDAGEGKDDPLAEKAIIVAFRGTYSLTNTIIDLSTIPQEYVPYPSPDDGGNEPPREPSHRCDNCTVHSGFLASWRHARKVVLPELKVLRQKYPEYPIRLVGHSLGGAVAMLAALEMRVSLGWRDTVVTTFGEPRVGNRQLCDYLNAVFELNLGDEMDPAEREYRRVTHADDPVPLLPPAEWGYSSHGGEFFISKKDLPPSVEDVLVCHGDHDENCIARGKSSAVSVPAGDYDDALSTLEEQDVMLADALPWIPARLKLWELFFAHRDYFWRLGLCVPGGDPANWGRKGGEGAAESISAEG
The experiment in a line: p-nitrophenol release, […] nm. It is filed as biochemical. Particulars: 100 mM phosphate buffer pH 8.0, 40°C.
Consider `CCCCCCCCCCCCCC(=O)Oc1ccc([N+](=O)[O-])cc1` [pNP myristate (C14)], for which the Km was found to be 70 µM.
With `CCCCCCCCCCCCCCCC(=O)Oc1ccc([N+](=O)[O-])cc1` [pNP palmitate (C16)], the Km was determined as 100 µM.
`CCCCCCCC(=O)Oc1ccc([N+](=O)[O-])cc1` [pNP caprylate (C8)]: the Michaelis-Menten constant (Km) came to 100 µM.
Consider `CC(=O)Oc1ccc([N+](=O)[O-])cc1` [pNP acetate (C2)], for which the Km is 150 µM.
In the case of `CCCC(=O)Oc1ccc([N+](=O)[O-])cc1` [pNP butyrate (C4)], the Km was 160 µM.
